Source: ChEMBL document CHEMBL1133032, “Combinatorial approach to lead optimization of a novel hexapeptide with antifungal activity” (Bioorg Med Chem Lett, 2000)
≈ marks a conversion by molar mass, not a printed value. Square brackets hold non-standard residues; d marks the D form. Peptide text beside a SMILES is read from it.

system: Cryptococcus neoformans; experiment: Lowest concentration of compound that substantially inhibited the growth of Cryptococcus neoformans after 48 hr; type: functional

Row | Structure (SMILES) | MIC [µM]
1 | NCCCC[C@H](NC(=O)[C@@H](Cc1ccccc1)NC(=O)[C@H](Cc1ccccc1)NC(=O)[C@@H](Cc1ccccc1)NC(=O)[C@@H](Cc1c[nH]c2ccccc12)NC(=O)[C@@H](N)Cc1c[nH]cn1)C(N)=O (H-H[dW][dF]F[dF]K-NH2) | 6.81 (≈ 6.2 µg/mL)
2 | CC[C@H](C)[C@H](NC(=O)[C@@H](Cc1ccccc1)NC(=O)[C@@H](Cc1c[nH]c2ccccc12)NC(=O)[C@@H](N)CCCN=C(N)N)C(=O)N[C@H](Cc1ccccc1)C(=O)N[C@@H](C)C(N)=O [listing 1 of 2 here] | 14.9 (≈ 12.5 µg/mL)
3 | CC[C@H](C)[C@H](NC(=O)[C@@H](Cc1ccccc1)NC(=O)[C@@H](Cc1c[nH]c2ccccc12)NC(=O)[C@@H](N)CCCN=C(N)N)C(=O)N[C@H](Cc1ccccc1)C(=O)N[C@@H](Cc1c[nH]c2ccccc12)C(N)=O [listing 1 of 2 here] | 13.1 (≈ 12.5 µg/mL)
4 | CC[C@H](C)[C@H](NC(=O)[C@@H](Cc1ccccc1)NC(=O)[C@@H](Cc1c[nH]c2ccccc12)NC(=O)[C@@H](N)CCCN=C(N)N)C(=O)N[C@H](Cc1ccccc1)C(=O)NCC(N)=O [listing 1 of 2 here] | 15.2 (≈ 12.5 µg/mL)
5 | CC[C@H](C)[C@H](NC(=O)[C@@H](Cc1ccccc1)NC(=O)[C@@H](Cc1c[nH]c2ccccc12)NC(=O)[C@@H](N)CCCN=C(N)N)C(=O)N[C@H](Cc1ccccc1)C(=O)N[C@@H](CCC(N)=O)C(N)=O [listing 1 of 2 here] | 55.9 (≈ 50 µg/mL)
6 | CC[C@H](C)[C@H](NC(=O)[C@@H](Cc1ccccc1)NC(=O)[C@@H](NC(=O)[C@@H](Cc1ccccc1)NC(=O)[C@@H](Cc1c[nH]c2ccccc12)NC(=O)[C@@H](N)CCCN=C(N)N)[C@@H](C)CC)C(N)=O [listing 1 of 2 here] | 28.4 (≈ 25 µg/mL)
7 | CC[C@H](C)[C@H](NC(=O)[C@@H](Cc1ccccc1)NC(=O)[C@@H](Cc1c[nH]c2ccccc12)NC(=O)[C@@H](N)CCCN=C(N)N)C(=O)N[C@H](Cc1ccccc1)C(=O)N[C@@H](Cc1ccc(O)cc1)C(N)=O [listing 1 of 2 here] | 13.4 (≈ 12.5 µg/mL)
8 | CC[C@H](C)[C@H](NC(=O)[C@@H](Cc1ccccc1)NC(=O)[C@@H](Cc1c[nH]c2ccccc12)NC(=O)[C@@H](N)CCCN=C(N)N)C(=O)N[C@H](Cc1ccccc1)C(=O)N[C@H](C(N)=O)C(C)C [listing 1 of 2 here] | 14.4 (≈ 12.5 µg/mL)
9 | CC[C@H](C)[C@H](NC(=O)[C@@H](Cc1ccccc1)NC(=O)[C@@H](Cc1c[nH]c2ccccc12)NC(=O)[C@@H](N)CCCN=C(N)N)C(=O)N[C@H](Cc1ccccc1)C(=O)N[C@@H](CO)C(N)=O [listing 1 of 2 here] | 14.6 (≈ 12.5 µg/mL)
10 | CC[C@H](C)[C@H](NC(=O)[C@@H](Cc1ccccc1)NC(=O)[C@@H](Cc1c[nH]c2ccccc12)NC(=O)[C@@H](N)CCCN=C(N)N)C(=O)N[C@H](Cc1ccccc1)C(=O)N[C@H](C(N)=O)[C@@H](C)O [listing 1 of 2 here] | 14.4 (≈ 12.5 µg/mL)
11 | CC[C@H](C)[C@H](NC(=O)[C@@H](Cc1ccccc1)NC(=O)[C@@H](Cc1c[nH]c2ccccc12)NC(=O)[C@@H](N)CCCN=C(N)N)C(=O)N[C@H](Cc1ccccc1)C(=O)N[C@@H](CCCN=C(N)N)C(N)=O [listing 1 of 2 here] | 6.71 (≈ 6.19 µg/mL)
12 | CC[C@H](C)[C@H](NC(=O)[C@@H](Cc1ccccc1)NC(=O)[C@@H](Cc1c[nH]c2ccccc12)NC(=O)[C@@H](N)CCCN=C(N)N)C(=O)N[C@H](Cc1ccccc1)C(=O)N[C@@H](CC(C)C)C(N)=O [listing 1 of 2 here] | 7.04 (≈ 6.2 µg/mL)
13 | CC[C@H](C)[C@H](NC(=O)[C@@H](Cc1ccccc1)NC(=O)[C@@H](Cc1c[nH]c2ccccc12)NC(=O)[C@@H](N)CCCN=C(N)N)C(=O)N[C@H](Cc1ccccc1)C(=O)N[C@@H](CC(=O)O)C(N)=O [listing 1 of 2 here] | 113 (≈ 100 µg/mL)
14 | CC[C@H](C)[C@H](NC(=O)[C@@H](Cc1ccccc1)NC(=O)[C@@H](Cc1c[nH]c2ccccc12)NC(=O)[C@@H](N)CCCN=C(N)N)C(=O)N[C@H](Cc1ccccc1)C(=O)N1CCC[C@H]1C(N)=O [listing 1 of 2 here] | 28.9 (≈ 25 µg/mL)
15 | CC[C@H](C)[C@H](NC(=O)[C@@H](Cc1ccccc1)NC(=O)[C@@H](Cc1c[nH]c2ccccc12)NC(=O)[C@@H](N)CCCN=C(N)N)C(=O)N[C@H](Cc1ccccc1)C(=O)N[C@@H](Cc1ccccc1)C(N)=O [listing 1 of 2 here] | 13.7 (≈ 12.5 µg/mL)
16 | CC[C@H](C)[C@H](NC(=O)[C@@H](Cc1ccccc1)NC(=O)[C@@H](Cc1c[nH]c2ccccc12)NC(=O)[C@@H](N)CCCN=C(N)N)C(=O)N[C@H](Cc1ccccc1)C(=O)N[C@@H](CC(N)=O)C(N)=O [listing 1 of 2 here] | 14.2 (≈ 12.5 µg/mL)
17 | CC[C@H](C)[C@H](NC(=O)[C@@H](Cc1ccccc1)NC(=O)[C@@H](Cc1c[nH]c2ccccc12)NC(=O)[C@@H](N)CCCN=C(N)N)C(=O)N[C@H](Cc1ccccc1)C(=O)N[C@@H](Cc1c[nH]cn1)C(N)=O (H-R[dW][dF]I[dF]H-NH2) [listing 1 of 2 here] | 6.85 (≈ 6.19 µg/mL)
18 | CC[C@H](C)[C@H](NC(=O)[C@@H](Cc1ccccc1)NC(=O)[C@@H](Cc1c[nH]c2ccccc12)NC(=O)[C@@H](N)CCCN=C(N)N)C(=O)N[C@H](Cc1ccccc1)C(=O)N[C@@H](CCSC)C(N)=O [listing 1 of 2 here] | 27.8 (≈ 25 µg/mL)
19 | CC[C@H](C)[C@H](NC(=O)[C@@H](Cc1ccccc1)NC(=O)[C@@H](Cc1c[nH]c2ccccc12)NC(=O)[C@@H](N)CCCN=C(N)N)C(=O)N[C@H](Cc1ccccc1)C(=O)N[C@@H](CCC(=O)O)C(N)=O [listing 1 of 2 here] | 55.8 (≈ 50 µg/mL)
20 | CC[C@H](C)[C@H](NC(=O)[C@@H](Cc1ccccc1)NC(=O)[C@@H](Cc1c[nH]c2ccccc12)NC(=O)[C@@H](N)CCCN=C(N)N)C(=O)N[C@H](Cc1ccccc1)C(=O)N[C@@H](CCCCN)C(N)=O [listing 1 of 2 here] | 6.92 (≈ 6.19 µg/mL)

system: Candida albicans; experiment: Antifungal activity against Candida albicans using twofold microbroth dilution technique.; type: functional, organism-based

Row | Structure (SMILES) | IC50 [µM]
21 | NCCCC[C@H](NC(=O)[C@@H](Cc1ccccc1)NC(=O)[C@H](Cc1ccccc1)NC(=O)[C@@H](Cc1ccccc1)NC(=O)[C@@H](Cc1c[nH]c2ccccc12)NC(=O)[C@@H](N)Cc1c[nH]cn1)C(N)=O (H-H[dW][dF]F[dF]K-NH2) | 28.6
22 | CC[C@H](C)[C@H](NC(=O)[C@@H](Cc1ccccc1)NC(=O)[C@@H](Cc1c[nH]c2ccccc12)NC(=O)[C@@H](N)CCCN=C(N)N)C(=O)N[C@H](Cc1ccccc1)C(=O)N[C@@H](CCSC)C(N)=O [listing 2 of 2 here] | 24.5
23 | CC[C@H](C)[C@H](NC(=O)[C@@H](Cc1ccccc1)NC(=O)[C@@H](Cc1c[nH]c2ccccc12)NC(=O)[C@@H](N)CCCN=C(N)N)C(=O)N[C@H](Cc1ccccc1)C(=O)N[C@@H](Cc1ccccc1)C(N)=O [listing 2 of 2 here] | 13.7
24 | CC[C@H](C)[C@H](NC(=O)[C@@H](Cc1ccccc1)NC(=O)[C@@H](Cc1c[nH]c2ccccc12)NC(=O)[C@@H](N)CCCN=C(N)N)C(=O)N[C@H](Cc1ccccc1)C(=O)N[C@@H](CO)C(N)=O [listing 2 of 2 here] | > 14.9
25 | CC[C@H](C)[C@H](NC(=O)[C@@H](Cc1ccccc1)NC(=O)[C@@H](Cc1c[nH]c2ccccc12)NC(=O)[C@@H](N)CCCN=C(N)N)C(=O)N[C@H](Cc1ccccc1)C(=O)N[C@@H](CCCN=C(N)N)C(N)=O [listing 2 of 2 here] | > 12.5
26 | CC[C@H](C)[C@H](NC(=O)[C@@H](Cc1ccccc1)NC(=O)[C@@H](Cc1c[nH]c2ccccc12)NC(=O)[C@@H](N)CCCN=C(N)N)C(=O)N[C@H](Cc1ccccc1)C(=O)N[C@@H](CC(=O)O)C(N)=O [listing 2 of 2 here] | > 14.9
27 | CC[C@H](C)[C@H](NC(=O)[C@@H](Cc1ccccc1)NC(=O)[C@@H](Cc1c[nH]c2ccccc12)NC(=O)[C@@H](N)CCCN=C(N)N)C(=O)N[C@H](Cc1ccccc1)C(=O)N[C@@H](CCCCN)C(N)=O [listing 2 of 2 here] | 14.4
28 | CC[C@H](C)[C@H](NC(=O)[C@@H](Cc1ccccc1)NC(=O)[C@@H](Cc1c[nH]c2ccccc12)NC(=O)[C@@H](N)CCCN=C(N)N)C(=O)N[C@H](Cc1ccccc1)C(=O)N[C@H](C(N)=O)C(C)C [listing 2 of 2 here] | > 28.4
29 | CC[C@H](C)[C@H](NC(=O)[C@@H](Cc1ccccc1)NC(=O)[C@@H](Cc1c[nH]c2ccccc12)NC(=O)[C@@H](N)CCCN=C(N)N)C(=O)N[C@H](Cc1ccccc1)C(=O)N[C@@H](Cc1c[nH]cn1)C(N)=O (H-R[dW][dF]I[dF]H-NH2) [listing 2 of 2 here] | 6.85
30 | CC[C@H](C)[C@H](NC(=O)[C@@H](Cc1ccccc1)NC(=O)[C@@H](Cc1c[nH]c2ccccc12)NC(=O)[C@@H](N)CCCN=C(N)N)C(=O)N[C@H](Cc1ccccc1)C(=O)N[C@@H](Cc1c[nH]c2ccccc12)C(N)=O [listing 2 of 2 here] | 25.4
31 | CC[C@H](C)[C@H](NC(=O)[C@@H](Cc1ccccc1)NC(=O)[C@@H](Cc1c[nH]c2ccccc12)NC(=O)[C@@H](N)CCCN=C(N)N)C(=O)N[C@H](Cc1ccccc1)C(=O)N[C@@H](CCC(=O)O)C(N)=O [listing 2 of 2 here] | > 28.4
32 | CC[C@H](C)[C@H](NC(=O)[C@@H](Cc1ccccc1)NC(=O)[C@@H](Cc1c[nH]c2ccccc12)NC(=O)[C@@H](N)CCCN=C(N)N)C(=O)N[C@H](Cc1ccccc1)C(=O)N[C@@H](C)C(N)=O [listing 2 of 2 here] | > 14.9
33 | CC[C@H](C)[C@H](NC(=O)[C@@H](Cc1ccccc1)NC(=O)[C@@H](Cc1c[nH]c2ccccc12)NC(=O)[C@@H](N)CCCN=C(N)N)C(=O)N[C@H](Cc1ccccc1)C(=O)N[C@@H](CC(C)C)C(N)=O [listing 2 of 2 here] | 14.9
34 | CC[C@H](C)[C@H](NC(=O)[C@@H](Cc1ccccc1)NC(=O)[C@@H](Cc1c[nH]c2ccccc12)NC(=O)[C@@H](N)CCCN=C(N)N)C(=O)N[C@H](Cc1ccccc1)C(=O)N[C@H](C(N)=O)[C@@H](C)O [listing 2 of 2 here] | > 14.9
35 | CC[C@H](C)[C@H](NC(=O)[C@@H](Cc1ccccc1)NC(=O)[C@@H](Cc1c[nH]c2ccccc12)NC(=O)[C@@H](N)CCCN=C(N)N)C(=O)N[C@H](Cc1ccccc1)C(=O)NCC(N)=O [listing 2 of 2 here] | 33.9
36 | CC[C@H](C)[C@H](NC(=O)[C@@H](Cc1ccccc1)NC(=O)[C@@H](Cc1c[nH]c2ccccc12)NC(=O)[C@@H](N)CCCN=C(N)N)C(=O)N[C@H](Cc1ccccc1)C(=O)N[C@@H](CC(N)=O)C(N)=O [listing 2 of 2 here] | > 14.9
37 | CC[C@H](C)[C@H](NC(=O)[C@@H](Cc1ccccc1)NC(=O)[C@@H](Cc1c[nH]c2ccccc12)NC(=O)[C@@H](N)CCCN=C(N)N)C(=O)N[C@H](Cc1ccccc1)C(=O)N[C@@H](CCC(N)=O)C(N)=O [listing 2 of 2 here] | 30.2
38 | CC[C@H](C)[C@H](NC(=O)[C@@H](Cc1ccccc1)NC(=O)[C@@H](NC(=O)[C@@H](Cc1ccccc1)NC(=O)[C@@H](Cc1c[nH]c2ccccc12)NC(=O)[C@@H](N)CCCN=C(N)N)[C@@H](C)CC)C(N)=O [listing 2 of 2 here] | 45.6
39 | CC[C@H](C)[C@H](NC(=O)[C@@H](Cc1ccccc1)NC(=O)[C@@H](Cc1c[nH]c2ccccc12)NC(=O)[C@@H](N)CCCN=C(N)N)C(=O)N[C@H](Cc1ccccc1)C(=O)N[C@@H](Cc1ccc(O)cc1)C(N)=O [listing 2 of 2 here] | 15.9
40 | CC[C@H](C)[C@H](NC(=O)[C@@H](Cc1ccccc1)NC(=O)[C@@H](Cc1c[nH]c2ccccc12)NC(=O)[C@@H](N)CCCN=C(N)N)C(=O)N[C@H](Cc1ccccc1)C(=O)N1CCC[C@H]1C(N)=O [listing 2 of 2 here] | 51.4
